Experimental data from patent US8017612B2, “Piperazine compound and use thereof as a HCV polymerase inhibitor” (priority 2006, dated 2011).
Structures can show the parent of a compound that is named as a salt.

Key:
[1] = molecular target: T1, HCV polymerase (NS5B) type 1a (Hepatitis C virus genotype 1a, UniProt P26664); test: Assay of enzyme (HCV polymerase) inhibitory activity, type 1a enzyme; format: biochemical, HCV type 1a (cloned from the blood of patients); settings: HCV polymerase inhibitory activity (IC50), 1a, type 1a enzyme 1.5 μg/ml, 25° C., 60 min
T1 construct: made in house; host or cells: Escherichia coli (by the 'similar method' of the 1b enzyme)
Procedure, shortened: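 NS5B Δ47 C-term His6 (type 1a, 1.5 μg/ml); substrate RNA 5 μg/ml; ATP/GTP/CTP 50 μM, UTP 2 μM + [5,6-3H]UTP; Tris pH 7.5, MgCl2 5 mM; 25° C, 60 min. TCA/pyrophosphate stop, GF/B filter, scintillation. IC50 vs no-compound control.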

[2] = molecular target: T2, HCV polymerase (NS5B) type 1b (Hepatitis C virus genotype 1b, UniProt P26663); test: Assay of enzyme (HCV polymerase) inhibitory activity, type 1b enzyme; format: biochemical, HCV BK strain (type 1b); settings: HCV polymerase inhibitory activity (IC50), 1b, type 1b enzyme 0.5 μg/ml, 25° C., 60 min
T2 construct: a region encoding NS5B (J Virol 1991 March, 65(3), 1105-13, 544 amino acids after deletion of 47 amino acids on the C-terminal); 6xHis (C); made in house; host or cells: Escherichia coli
Procedure, shortened: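 Rxn: NS5B 1b (BK, ΔC47, His6) 0.5 μg/ml; substrate RNA 5 μg/ml; ATP/GTP/CTP 50 μM, UTP 2 μM + [5,6-3H]UTP; 20 mM Tris pH 7.5, 5 mM MgCl2, 50 mM NaCl, 1 mM EDTA/DTT. 25 °C, 60 min. Stop with TCA/pyrophosphate, filter, scintillation count; IC50 vs. untreated.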

Row | SMILES | IC50 [1] [nM] | IC50 [2] [nM]
1 | CC(=O)N1CCN(S(=O)(=O)c2ccc(C(C)C)cc2)C(C(=O)NCc2ccccn2)C1 (stereo not shown) [Example 152, 4-acetyl-1-(4-isopropyl-benzenesulfonyl)-piperazine-2-carboxylic acid (pyridin-2-ylmethyl)-amide] | > 1000 | > 1000
2 | CN(C)c1ccc(CNC(=O)C2CN(C(=O)Cc3ccccn3)CCN2S(=O)(=O)c2ccc(I)cc2)cc1 (stereo not shown) [Example 153, 1-(4-iodo-benzenesulfonyl)-4-(2-pyridin-2-yl-acetyl)-piperazine-2-carboxylic acid 4-dimethylamino-benzylamide] | > 1000 | > 1000
3 | CN(C)c1ccc(CNC(=O)C2CN(C(=O)Cc3cccnc3)CCN2S(=O)(=O)c2ccc(I)cc2)cc1 (stereo not shown) [Example 154, 1-(4-iodo-benzenesulfonyl)-4-(2-pyridin-3-yl-acetyl)-piperazine-2-carboxylic acid 4-dimethylamino-benzylamide] | 100 to 1000 | 100 to 1000
4 | CC(C)c1ccc(S(=O)(=O)N2CCN(c3nc4c(s3)Cc3ccccc3-4)CC2C(=O)NCc2ccc(C(F)(F)F)cc2)cc1 (stereo not shown) [Example 155, 4-(8H-indeno[1,2-d]thiazol-2-yl)-1-(4-isopropyl-benzenesulfonyl)-piperazine-2-carboxylic acid 4-trifluoromethyl-benzylamide] | > 1000 | > 1000
5 | CC(C)c1ccc(S(=O)(=O)N2CCN(c3nc4c(s3)CCCC4)CC2C(=O)NCc2ccc(C(F)(F)F)cc2)cc1 (stereo not shown) [Example 156, 1-(4-isopropyl-benzenesulfonyl)-4-(4,5,6,7-tetrahydro-benzothiazol-2-yl)-piperazine-2-carboxylic acid 4-trifluoromethyl-benzylamide] | > 1000 | > 1000
6 | CN(C)c1ccc(CNC(=O)[C@H]2CN(C(=O)CN)CCN2S(=O)(=O)c2ccc(I)cc2)cc1 [Example 157, (R)-4-(2-amino-acetyl)-1-(4-iodo-benzenesulfonyl)-piperazine-2-carboxylic acid 4-dimethylamino-benzylamide hydrochloride] | > 1000 | > 1000
7 | CN(C)c1ccc(CNC(=O)[C@H]2CN(C(=O)CN3CCCCC3)CCN2S(=O)(=O)c2ccc(I)cc2)cc1 [Example 158, (R)-1-(4-iodo-benzenesulfonyl)-4-(2-piperidin-1-yl-acetyl)-piperazine-2-carboxylic acid 4-dimethylamino-benzylamide] | > 1000 | > 1000
8 | CN(C)c1ccc(CNC(=O)[C@H]2CN(C(=O)CN3CCCC3)CCN2S(=O)(=O)c2ccc(I)cc2)cc1 [Example 159, (R)-1-(4-iodo-benzenesulfonyl)-4-(2-pyrrolidin-1-yl-acetyl)-piperazine-2-carboxylic acid 4-dimethylamino-benzylamide] | > 1000 | > 1000
9 | CN(C)c1ccc(CNC(=O)[C@H]2CN(C(=O)CN3CCOCC3)CCN2S(=O)(=O)c2ccc(I)cc2)cc1 [Example 160, (R)-1-(4-iodo-benzenesulfonyl)-4-(2-morpholin-4-yl-acetyl)-piperazine-2-carboxylic acid 4-dimethylamino-benzylamide] | 100 to 1000 | 100 to 1000
10 | CC(=O)N1CCN(S(=O)(=O)c2ccc(Cl)cc2Cl)C(C(=O)NCc2ccc(C(F)(F)F)cc2)C1 (stereo not shown) [Example 161, 4-acetyl-1-(2,4-dichloro-benzenesulfonyl)-piperazine-2-carboxylic acid 4-trifluoromethyl-benzylamide] | > 1000 | > 1000
11 | CCC(CC)c1ccc(S(=O)(=O)N2CCN(C(C)=O)CC2C(=O)NCc2ccc(C(F)(F)F)cc2)cc1 (stereo not shown) [Example 162, 4-acetyl-1-[4-(1-ethyl-propyl)-benzenesulfonyl]-piperazine-2-carboxylic acid 4-trifluoromethyl-benzylamide] | > 1000 | > 1000
12 | CCC(CC)c1ccc(CNC(=O)C2CN(C(C)=O)CCN2S(=O)(=O)c2ccc(C(C)C)cc2)cc1 (stereo not shown) [Example 163, 4-acetyl-1-(4-isopropyl-benzenesulfonyl)-piperazine-2-carboxylic acid 4-(1-ethyl-propyl)-benzylamide] | 100 to 1000 | 100 to 1000
13 | CC(=O)N1CCN(S(=O)(=O)c2ccc3ccccc3c2)C(C(=O)NCc2ccc(C(F)(F)F)cc2)C1 (stereo not shown) [Example 164, 4-acetyl-1-(naphthalene-2-sulfonyl)-piperazine-2-carboxylic acid 4-trifluoromethyl-benzylamide] | > 1000 | > 1000
14 | CC(=O)N1CCN(S(=O)(=O)c2cccc(Br)c2)C(C(=O)NCc2ccc(C(F)(F)F)cc2)C1 (stereo not shown) [Example 165, 4-acetyl-1-(3-bromo-benzenesulfonyl)-piperazine-2-carboxylic acid 4-trifluoromethyl-benzylamide] | > 1000 | > 1000
15 | COC(=O)CCc1ccc(S(=O)(=O)N2CCN(C(C)=O)CC2C(=O)NCc2ccc(C(F)(F)F)cc2)cc1 (stereo not shown) [Example 166, 3-{4-[4-acetyl-2-(4-trifluoromethyl-benzylcarbamoyl)-piperazine-1-sulfonyl]-phenyl}-propionic acid methyl ester] | > 1000 | > 1000
16 | CC(=O)N1CCN(S(=O)(=O)c2ccc(C3CCCCC3)cc2)C(C(=O)NCc2ccc(C(F)(F)F)cc2)C1 (stereo not shown) [Example 167, 4-acetyl-1-(4-cyclohexyl-benzenesulfonyl)-piperazine-2-carboxylic acid 4-trifluoromethyl-benzylamide] | > 1000 | > 1000
17 | CC(=O)N1CCN(S(=O)(=O)c2cccc(C(=O)O)c2)C(C(=O)NCc2ccc(C(F)(F)F)cc2)C1 (stereo not shown) [Example 168, 3-[4-acetyl-2-(4-trifluoromethyl-benzylcarbamoyl)-piperazine-1-sulfonyl]-benzoic acid] | > 1000 | > 1000
18 | CC(=O)N1CCN(S(=O)(=O)c2ccc(C(C)C)cc2)[C@@H](C(=O)NCc2ccc(C(C)(C)CO)cc2)C1 [Example 169, (R)-4-acetyl-1-(4-isopropyl-benzenesulfonyl)-piperazine-2-carboxylic acid 4-(2-hydroxy-1,1-dimethyl-ethyl)-benzylamide] | > 1000 | > 1000
19 | CCOC(=O)c1csc(N2CCN(S(=O)(=O)c3ccc(C(C)C)cc3)C(C(=O)NCc3ccc(C(F)(F)F)cc3)C2)n1 (stereo not shown) [Example 170, 2-[4-(4-isopropyl-benzenesulfonyl)-3-(4-trifluoromethyl-benzylcarbamoyl)-piperazin-1-yl]-thiazole-4-carboxylic acid ethyl ester] | > 1000 | > 1000
20 | CC(C)c1ccc(S(=O)(=O)N2CCN(c3nc(C(=O)O)cs3)CC2C(=O)NCc2ccc(C(F)(F)F)cc2)cc1 (stereo not shown) [Example 171, 2-[4-(4-isopropyl-benzenesulfonyl)-3-(4-trifluoromethyl-benzylcarbamoyl)-piperazin-1-yl]-thiazole-4-carboxylic acid] | > 1000 | > 1000
21 | CC(C)c1ccc(CNC(=O)[C@H]2CN(C(=O)Cc3ccccc3)CCN2S(=O)(=O)c2ccc(C(F)(F)F)cc2)cc1 [Example 172, (R)-4-phenylacetyl-1-(4-trifluoromethyl-benzenesulfonyl)-piperazine-2-carboxylic acid 4-isopropyl-benzylamide] | > 1000 | 100 to 1000
22 | COC(=O)CCC(=O)N1CCN(S(=O)(=O)c2ccc(C(F)(F)F)cc2)[C@@H](C(=O)NCc2ccc(C(C)C)cc2)C1 [Example 173, 4-[(R)-3-(4-isopropyl-benzylcarbamoyl)-4-(4-trifluoromethyl-benzenesulfonyl)-piperazin-1-yl]-4-oxo-butyric acid methyl ester] | 100 to 1000 | 100 to 1000
23 | COC(=O)CCCC(=O)N1CCN(S(=O)(=O)c2ccc(C(F)(F)F)cc2)[C@@H](C(=O)NCc2ccc(C(C)C)cc2)C1 [Example 174, 5-[(R)-3-(4-isopropyl-benzylcarbamoyl)-4-(4-trifluoromethyl-benzenesulfonyl)-piperazin-1-yl]-5-oxo-pentanoic acid methyl ester] | 100 to 1000 | 100 to 1000
24 | CC(C)c1ccc(CNC(=O)[C@H]2CN(C(=O)Cc3cccnc3)CCN2S(=O)(=O)c2ccc(C(F)(F)F)cc2)cc1 [Example 175, (R)-4-(2-pyridin-3-yl-acetyl)-1-(4-trifluoromethyl-benzenesulfonyl)-piperazine-2-carboxylic acid 4-isopropyl-benzylamide] | 100 to 1000 | 100 to 1000
25 | CC(=O)N1CCN(S(=O)(=O)c2ccc(C(F)(F)F)cc2)[C@@H](C(=O)NCc2ccc(C(C)C)cc2)C1 [Example 176, (R)-4-acetyl-1-(4-trifluoromethyl-benzenesulfonyl)-piperazine-2-carboxylic acid 4-isopropyl-benzylamide] | 100 to 1000 | 100 to 1000
26 | CCNC(=O)N1CCN(S(=O)(=O)c2ccc(C(F)(F)F)cc2)[C@@H](C(=O)NCc2ccc(C(C)C)cc2)C1 [Example 177, (R)-4-(4-trifluoromethyl-benzenesulfonyl)-piperazine-1,3-dicarboxylic acid 1-ethylamide 3-(4-isopropyl-benzylamide)] | 100 to 1000 | 100 to 1000
